Source: ChEMBL document CHEMBL1147424, “TMC-95A, a reversible proteasome inhibitor, induces neurite outgrowth in PC12 cells” (2004)

Tested on: PC-12
Assay: Neuritogenic activity of compound in PC12 rat pheochromocytoma cells was evaluated at dose of 20 uM; Positive neurite initiation after 16 hour incubation
Assay type: functional

C/C=C\NC(=O)C1NC(=O)[C@H](CC(N)=O)NC(=O)[C@@H](NC(=O)C(=O)[C@@H](C)CC)Cc2ccc(O)c(c2)-c2cccc3c2NC(=O)[C@@]3(O)[C@@H]1O (stereo partly specified)
Activity: 60%
